In patent US20110251188A1, “ACENAPHTHO HETEROCYCLE COMPOUNDS, CYCLODEXTRIN INCLUSION COMPOUNDS AND COMPLEXES, AND USES IN THE MANUFACTURES OF BH3 PROTEIN ANALOGUE, BCL-2 FAMILY PROTEIN INHIBITORS THEREOF” (DALIAN UNIVERSITY OF TECHNOLOGY, priority 2008, published 2011):

What was measured:
[1] = target: T1, interaction between Bcl-2 and Bax (Homo sapiens, UniProt P10415); assay: intracellular fluorescence polarization energy transfer (FRET), Hela cells transfected with Bcl-2-CFP and Bax-YFP; type: cell-based; settings: for Time for which the compound interfered with the interaction between Bcl-2 and Bax: goes with the concentration of E11; for Concentration at which the compound interfered with the interaction between Bcl-2 and Bax: goes with the time of E12
T1 construct: expressed in transfected cells; host or cells: Hela cells
Procedure: 24 hours later (please refer to FIG. 2), the cells were washed with PBS for three times. The fluorescence value was detected by GENIOS fluorescence enzyme-labelled meter (TECAN, Swiss). In time-dependent experiment, the transfected cells were inoculated in a 6-well plate, after that, 40 μM of the compound was added thereinto. 3, 6 and 24 hours later (FIG. 3), the fluorescence intensities were detected by plate reader. As for the cell group in which only Bcl-2-CFP plasmid was transfected, the values at 475 nm emission wave length and 433 nm excitation wave length were recorded. As for the cell group in which only Bax-YFP plasmid was transfected, the values at 527 nm emission wave length and 505 nm excitation wave length were recorded. […] The ratio of fluorescence intensity at 527 nm and 475 nm emission wave lengths was FRET. The FRET for the control group in which the plasmid was solely transfected was set as 1.0. […] The cellular vitality was detected by MTT method.
Wherein the concentration and time meant that the detected compound interfered with the interaction between Bcl-2 and Bax at the concentration for the time period.

GST-Bcl-2 protein [2] = target: T2, GST-Bcl-2 protein (Homo sapiens, UniProt P10415); assay: fluorescence polarization assay, competitive binding against FAM-Bid peptide; settings: Table 3; FAM-Bid competition; table does not say whether Bcl-2 or Mcl-1; read-out: Binding constant
T2 construct: fused on or other part: GST tag on Bcl-2
Procedure: (§1) A Bid BH3 peptide (amino acids: 79-99: […]) having 21 amino acids was synthesized and marked with 6-carboxyfluorescein N-succinimidyl ester (FAM) as fluorescent tag (FAM-Bid) at the N-terminal. The reaction system used in the competitive binding experiment was GST-Bcl-2 protein (40 nM) or Mcl-1 protein, which was dissolved in the reaction buffer (100 mM K3PO4, pH 7.5; 100 μg/ml bovine γ albumin; 0.02% sodium azide) together with FAM-Bid polypeptide (5 nM). In a 96-well plate, 100 μL of the reaction system was added into each well. Then 1 μL different concentration of 3-thiomorpholinyl-8-oxo-8H-acenaphtho[1,2-b]pyrrole-9-carbonitrile mother solution to be detected dissolved in DMSO was added thereinto until the final concentration met the experimental design requirements. Meanwhile, two control groups were established, one with the reaction system only contains Bcl-2 or Mcl-1 and FAM-Bid (equivalent to 0% inhibition rate), the other with the reaction system only containing FAM-Bid peptide. After 4 hours of incubation, the 96-well plate was detected by enzyme-labelled meter. The fluorescent polarization value (mP) was tested at […]. Ki value was deduced according to calculation formula. The competitive binding constant between the compound and Bcl-2 was 310 nM.

Bcl-2 [3] = assay: Western blotting, inhibition (downregulation) of Bcl-2 in tumor cells, Example 23; type: cell-based; settings: for inhibition against Bcl-2: Western blotting, tumor cells
Procedure: (§2) The interest protein was detected by the corresponding antibody. The expression of the interest protein in the cells was detected by horseradish peroxidase-labeled secondary antibodies in combination with ECL coloration method. […] The concentration of the protein bands in the Western images were carried out semiquantitative analysis and normalization treatment with KODAK Gel Logic 1500 imaging system software.

MCF-7 cells = assay: cytotoxicity depending on BAX/BAK, MTT, MCF-7 cells with or without BAX/BAK interfering plasmid; type: cell-based; settings: MCF-7 cells, 48 hours, MTT
Procedure: 3 ng of BAX/BAK interfering plasmid was transfected into MCF-7 cells by using calcium phosphate coprecipitation method, 24 hours later, the cells were collected. The expressions after the BAX and BAK proteins interfered with RNA was detected by Western, and the cell groups without plasmid transfection were treated similarly and were set as the control group. The transfected cells were inoculated in a 96-well plate (1×10^5 cells/well), the control experiment of the cell group without plasmid transfection was carried out in parallel. The compound 3-thiomorpholinyl-8-oxo-8 H-acenaphtho[1,2-b]pyrrole-9-carbonitrile to be detected was added thereinto according to the concentration gradient designed before the experiment. 48 hours later, the cellular vitality was detected by MTT. The experimental results were shown in FIG. 6, Gossypol as nonspecific BH3 analogue was treated in parallel.

[4] = tested on: hepatoma carcinoma cells H22; assay: in vivo tumor model, subcutaneous H22 tumor in Kunming mice; settings: for tumor inhibition rate: experimental group 2: peritoneal injection of DMSO solution, 0.3 mg/kg BW every other day, 10 days, tumor volume on the fortieth day
Procedure: The Kunming mice (in China) were randomly divided into groups, with 10 mice in each group. The cultivated hepatoma carcinoma cells H22 were inoculated subcutaneously in the oxter of the mice with 200 μL/mouse. After bearing the cancer cells for five days, the subcutaneous tumor was formed. Then the compound 3-thiomorpholinyl-8-oxo-8H-acenaphtho[1,2-b]pyrrole-9-carbonitrile and γ-cyclodextrin inclusion compound thereof were given by peritoneal injection, and the compound to be detected included by γ-cyclodextrin was given by oral administration. The detection conditions comprise:
Blank control group: the mice were not treated in any manner after the bearing cancer;
Control group (1): the mice were given a peritoneal injection of DMSO solution every other day after the bearing cancer, 10 days in total;
Control group (2): the mice were given a peritoneal injection of cyclodextrin solution every other day after the bearing cancer, 10 days in total;
Experimental group (1): the mice were given a peritoneal injection of DMSO solution equivalent to 0.03 mg/kg BW compound every other day after the bearing cancer, 10 days in total;
Experimental group (2): the mice were given a peritoneal injection of DMSO solution equivalent to 0.3 mg/kg BW compound every other day after the bearing cancer, 10 days in total;
Experimental group (3): the mice were given a peritoneal injection of inclusion compound water solution equivalent to 0.3 mg/kg BW compound every other day after the bearing cancer, 10 days in total;
Experimental group (4): the mice were given an intragastric administration of inclusion compounds water solution equivalent to 0.3 mg/kg BW compound every other day after the bearing cancer, 10 days in total;
During the experimental period, the length-diameter (a) and short diameter (b), which was perpendicular to the length-diameter, of the tumor were detected twice every week. The gross tumor volume was determined according to the formula: ½ab^2. The survival time of the animal was observed. The tumor inhibition rate was calculated by the tumor volume on the fortieth day.

GST-Bcl-2 protein [5] = assay: fluorescence polarization assay, competitive binding against FAM-Bid peptide; settings: GST-Bcl-2 40 nM, FAM-Bid 5 nM, 4 hours of incubation; read-out: competitive binding constant (Ki)
Procedure: as §1

Mcl-1 [6] = assay: Western blotting, inhibition (downregulation) of Mcl-1 in tumor cells, Example 23; type: cell-based; settings: for inhibition against Mcl-1: Western blotting, tumor cells
Procedure: as §2

Bcl-2 [7] = assay: Western blotting, compounds compared with cyclodextrin inclusion compounds and complexes, Example 24; type: cell-based; settings: Table 9; 10 μM or equivalent of inclusion compound, 24 hours
Procedure: (§3) The cells were inoculated in a 6-well plate (2×10^5 cells/well). In the compound group, the compound 3-thiomorpholinyl-8-oxo-8H-acenaphtho[1,2-b]pyrrole-9-carbonitrile was dissolved into DMSO until the final concentration reached 10 μM. In the inclusion group, γ-cyclodextrin inclusion, which had been dissolved into water and was equivalent to 10 μM of the compound, was added thereinto. 24 hours later, the cells were washed with PBS for three times, then the cell sample was collected and cracked with 1×10^6/50 μl cell lysis solution (62.5 mM Tris-HCL pH 6.8; 2% SDS; 10% glycerol; 50 mM DTT; 0.01% bromphenol blue) at low temperature, then the solution was centrifuged and the protein supernatant was collected. The sample was boiled at 100° C. for 5 minutes and then was separated by electrophoresis on 12% SDS-PAGE and transferred. The interest protein was detected by the corresponding antibody. The expression of the interest protein in the cells was detected by horseradish peroxidase-labeled secondary antibodies in combination with ECL coloration method. […] The concentration of the protein bands in the Western figures were carried out semiquantitative analysis and normalization treatment with KODAK Gel Logic 1500 imaging system software.

Mcl-1 [8] = assay: as above; type: cell-based; settings: Table 8; 10 μM or equivalent of inclusion compound, 24 hours
Procedure: as §3

Bax protein = assay: co-localization between Bax protein and chondriosome, Bax-YFP transfected MCF-7 cells; type: cell-based; settings: for Time for which the compound drove the BAX to shift towards the chondriosome: goes with the concentration of E14; for Concentration at which the compound drove the BAX to shift towards the chondriosome: goes with the time of E15
Procedure: 5 ng of Bax-YFP plasmid was transfected into MCF-7 cells by using calcium phosphate coprecipitation method, 24 hours later, the cells were inoculated in a 6-well plate (0.2×10^6 cells/well), and 10 μM of the compound 3-thiomorpholinyl-8-oxo-8 H-acenaphtho[1,2-b]pyrrole-9-carbonitrile to be detected was added thereinto. 6 hours later, the cells were washed with PBS and hatched away from light with 50 nM Mito Tracker Red CMXRos (chondriosome specific probes; red) for 10 minutes. Then the cells were washed with PBS for three times, and the fluorescent image was scanned with Radiance2000 laser confocal microscopy (Bio-Rad, USA). Meanwhile, dual channel scanning was carried out, one channel was used to scan the green fluorescence of Bax-YFP, and the other channel was used to scan the red fluorescence of the CMXRos probe for indicating the chondriosome. […] When the Bax protein was localized on the chondriosome, the green and red fluorescence was superimposed into orange, as shown in FIG. 4.
Other 8 compounds were detected by the same experimental method as described above. […] Wherein the concentration and time meant that the detected compound simulated the BH3-only protein and driven the BAX to shift towards the chondriosome at the concentration for the time period.

[9] = phase solubility experiment (solubility in water before and after cyclodextrin inclusion or complexation); settings: Table 1, compound per se, before inclusion

T2 sequence (P10415 whole entry, the tested form may be a part): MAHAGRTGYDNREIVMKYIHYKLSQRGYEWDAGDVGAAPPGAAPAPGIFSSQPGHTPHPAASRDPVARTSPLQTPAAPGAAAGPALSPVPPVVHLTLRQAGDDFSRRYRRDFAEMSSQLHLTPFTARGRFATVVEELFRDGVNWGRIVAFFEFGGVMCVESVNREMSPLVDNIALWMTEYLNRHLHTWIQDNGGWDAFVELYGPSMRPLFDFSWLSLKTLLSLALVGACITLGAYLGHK
T1 sequence (P10415 whole entry): as the sequence (P10415 whole entry, the tested form may be a part) above

Row | Compound | Time for which the compound interfered with the interaction between Bcl-2 and Bax [1] [h] | Concentration at which the compound interfered with the interaction between Bcl-2 and Bax [1] [µM] | Ki (GST-Bcl-2 protein [2]) [nM] | inhibition against Bcl-2 (Bcl-2 [3]) | dependence of cytotoxicity on BAX/BAK (MCF-7 cells) | average life (survival time) of the animal ([4]; compound group, control group 28±2.1 days) [days] | tumor inhibition rate [4] | Ki (GST-Bcl-2 protein [5]) [nM] | inhibition against Mcl-1 (Mcl-1 [6]) | downregulation of Bcl-2 protein, semiquantitative analysis (band concentration, control = 1) (Bcl-2 [3]; 2 hours) | downregulation of Bcl-2 protein, semiquantitative analysis (band concentration, control = 1) (Bcl-2 [3]; 6 hours) | downregulation of Mcl-1 protein, semiquantitative analysis (band concentration, control = 1) (Mcl-1 [6]; 6 hours) | downregulation of Mcl-1 protein, semiquantitative analysis (band concentration, control = 1) (Mcl-1 [6]; 12 hours) | downregulation of Mcl-1 protein, semiquantitative analysis (band concentration, control = 1) (Mcl-1 [6]; 18 hours) | downregulation of Mcl-1 protein, semiquantitative analysis (band concentration, control = 1) (Mcl-1 [6]; 24 hours) | downregulation of Bcl-2 protein, semiquantitative analysis (band concentration, control = 1) (Bcl-2 [7]) | downregulation of Mcl-1 protein, semiquantitative analysis (band concentration, control = 1) (Mcl-1 [8]) | Time for which the compound drove the BAX to shift towards the chondriosome (Bax protein) [h] | Concentration at which the compound drove the BAX to shift towards the chondriosome (Bax protein) [µM] | Solubility of compounds [9] [µM]
1 | 3-phenoxy-8-oxo-8H-acenaphtho[1,2-b]pyrrole-9-carboxylate | 6 | 10.0 | 790 |  |  |  |  |  |  |  |  |  |  |  |  |  |  |  |  | 
2 | N#CC1=C2C(=NC1=O)c1cccc3c(OC4CCOCC4)ccc2c13 [3-(tetrahydro-2H-pyranyl-4-oxo)-8-oxo-8H-acenaphtho[1,2-b]pyrrole-9-carbonitrile] |  |  | 600 |  |  |  |  |  |  |  |  |  |  |  |  |  |  |  |  | 
3 | N#CC1=C2C(=NC1=O)c1cccc3c(N4CCSCC4)ccc2c13 [3-thiomorpholinyl-8-oxo-8H-acenaphtho[1,2-b]pyrrole-9-carbonitrile] | 3 | 2 |  | had the inhibition against these two proteins | cytotoxicity of absolute dependence on BAX/BAK | 33 ± 3.1 | 22.3% | 310 | had the inhibition against these two proteins |  |  |  |  |  |  |  |  |  |  | 
4 | N#CC1=C2C(=NC1=O)c1ccc(OC3CCOCC3)c3cccc2c13 [4-(tetrahydro-2H-pyranyl-4-oxo)-8-oxo-8H-acenaphtho[1,2-b]pyrrole-9-carbonitrile] |  |  |  | had the inhibition against Bcl-2 and Mcl-1 proteins |  |  | about 40% |  | had the inhibition against Bcl-2 and Mcl-1 proteins | 0.71 | 0.38 | 0.99 | 0.99 | 0.61 | 0.29 | 0.77 | 0.80 |  |  | 
5 | N#CC1=C2C(=NC1=O)c1ccc(Oc3ccccc3)c3cccc2c13 [4-phenoxy-8-oxo-8H-acenaphtho[1,2-b]pyrrole-9-carbonitrile] | 6 | 10.0 | 890 |  |  |  |  |  |  |  |  |  |  |  |  |  |  | 6 | 10.0 | 
6 | N#CC1=C2C(=NC1=O)c1c(OCc3cccs3)ccc3cccc2c13 [6-(thienyl-2-methoxy)-8-oxo-8H-acenaphtho[1,2-b]pyrrole-9-carbonitrile] | 6 | 10.0 | 560 | had the inhibition against Bcl-2 and Mcl-1 proteins | absolute dependence on BAX/BAK |  |  |  | had the inhibition against Bcl-2 and Mcl-1 proteins | 0.69 | 0.40 | 0.99 | 0.99 | 0.54 | 0.33 |  |  | 6 | 10.0 | 0.35
